Laboratory results: patent US10869931B2, “Polyethylene glycol-modified angiogenesis inhibitor HM-1 and application thereof” (NANJING ANJI BIOLOGICAL TECHNOLOGY CO.,LTD, priority 2016, dated 2020)
Marks after values point to notes of the source that are not given here. Where no end group is shown, it is not given here.

Assays:
various tumor cells = assay: MTT proliferation inhibition, overall statements on various tumor cells; format: cell-based, human; conditions: compared with the negative control
Procedure: (§1) The activity of mPEG-HM-1 to inhibit the growth of various tumor cells was examined by MTT assay. The tumor cells were cultured to a concentration of 90% or more in a 37° C., 5% CO2 incubator and collected by trypsinization. The cells were resuspended in the culture medium and counted under a microscope to adjust the cell concentration to 2×10^4 cells/mL, the cell suspension was inoculated into a 96-well plate at 100 μL/well and incubated overnight at 37° C. in a 5% CO2 incubator. mPEG-HM-1 was diluted with the culture solution to each predetermined concentration. Docetaxel is diluted to the final concentration with the culture medium. After the cells were fully attached, each dilution was added to a 96-well plate (100 μL/well). The mPEG-HM-1 dilution was added as a drug-administered group, and docetaxel was added as a positive control group, and a culture solution without any drug was used as a negative control group. Incubate for 48 h at 37° C. in a 5% CO2 incubator. 5 mg/mL of MTT was added to a 96-well plate at 20 μL per well, and incubation was continued for 4 hours. The medium was aspirated, dissolved in 150 μL of DMSO per well, and gently mixed by shaking for 10 min. The absorbance was measured at a measurement wavelength of 570 nm and a reference wavelength of 630 nm using a microplate reader, and the rate of growth inhibition (proliferation inhibition, PI) was calculated. The formula is as follows: PI (%)=1−administration group/negative group
(§2) The test was repeated 3 times independently, and the results obtained by the test were expressed as mean±SD, and the test results are shown in Table 15 to Table 18.

[1] = tested on: collagen induced arthritis (CIA) in DBA/1 mice; assay: Collagen-induced mouse arthritis (CIA) model; format: in vivo; conditions: for Joint swelling / Left and right paw swelling / Clinical score: CIA DBA/1 mice; for Clinical score: maximum score 16
sarcoma tumor cells = assay: MTT proliferation inhibition, sarcoma cells; format: cell-based, human; design: concentration or dose not given beside the values; conditions: 48 h
Procedure: as §1, §2

[2] = tested on: Pancreatic cancer tumor cells; assay: MTT proliferation inhibition, pancreatic cancer cells; format: cell-based, human; design: concentration or dose not given beside the values; conditions: 48 h
Procedure: as §1, §2

[3] = tested on: Uterine cancer tumor cells; assay: MTT proliferation inhibition, uterine cancer cells; format: cell-based, human; design: concentration or dose not given beside the values; conditions: 48 h
Procedure: as §1, §2

[4] = tested on: retinal neovascular clusters in OIR C57/B16 mice; assay: Retinal blood vessels in OIR mice; format: in vivo, mouse; conditions: for Neovascular clusters area: retina evaluated on day 17; for Inhibition rate: neovascular clusters area vs control, day 17; for inhibition rate of retinal neovascular clusters: OIR mice, 50 μg intravitreal injection, evaluated day 17
Text: Establishment of the OIR model: Exposure of young mouse and their mothers to 75% hyperoxic environment from day 7 to day 12 after birth of C57/B16 mice caused rapid disappearance of capillaries in the central retina. Upon returning to the indoor air on the 12th day, the retinal blood vessels, upon exposing to hyperoxia, rapidly disappeared, causing extensive abnormal neovascularization, and the central portion of the retina remained largely avascular for a long time. After the blood vessels disappeared completely, on the 13th day, physiological saline (negative control group), mPEG-SC-HM-1, mPEG2-NHS-HM-1, mPEG-ALD10k-HM-1, and mPEG-bALD-HM-1, were administered by intravitreal injection and retinal vessels were evaluated on day 17 (to label unclosed vessels, […] of Texas Red-labeled tomato lectin was injected into the left ventricle and circulated for 5 min).

[5] = tested on: Colorectal cancer tumor cells; assay: MTT proliferation inhibition, colorectal cancer cells; format: cell-based, human; design: concentration or dose not given beside the values; conditions: 48 h
Procedure: as §1, §2

[6] = tested on: neovascularization in rat model of premature retinopathy; assay: Fluctuating-oxygen rat model of premature retinopathy (endothelial nuclei count); format: in vivo; conditions: day 14
Procedure: A fluctuating oxygen-induced animal model was used to randomly divide the newborn rats that were naturally delivered on the same day (within 12 hours) into three groups: the oxygenated model group, the oxygenated treatment group, and the normal control group. The oxygenated model group was subdivided into three subgroup models and along with the oxygenated treatment group was placed in a semi-closed oxygen chamber made of plexiglass. The chamber was connected to medical oxygen, and the oxygen analyzer was adjusted to a concentration of 80%±2%. After 24 hours, Nitrogen gas was introduced into the oxygen chamber, and the oxygen concentration was adjusted to 10%±2% and maintained for 24 h. This process was repeated, so that the oxygen concentration in the oxygen chamber is switched between 80% and 10% every 24 hours, and then transferred to the air for 7 days. The oxygen concentration was monitored 8 times a day, and the ambient temperature in the control cabin was 23° C.±2° C. Bedding change, adding food, changing water and replacing mother rats were performed once a day. The normal control group was placed in an animal facility environment. […] The oxygenated therapeutic components were divided into four subgroups, and on the 7th day of modeling, mPEG-SC-HM-1, mPEG2-NHS-HM-1, mPEG-ALD10k-HM-1, and mPEG-bALD-HM-1 were respectively administered by intravitreal injection. Only normal saline was administered to the oxygen model group and the control group. The administrations continued for 1 week. […] After immersion in wax, serial section at thickness of 4 μm was performed, wherein the sections were kept away from the optic disc. The sections are parallel to the sagittal plane of the cornea to the optic disc. Ten sections per eyeball were randomly selected from each eyeball to be stained with hematoxylin and eosin, and the number of vascular endothelial cells that broke through the retinal inner membrane was counted (only the vascular endothelial nucleus closely related to the inner retinal membrane was counted), and the average numbers of endothelial cells per eyeball per slice was counted.

Hemangioma tumor cells = assay: MTT proliferation inhibition, hemangioma cells; format: cell-based, human; design: concentration or dose not given beside the values; conditions: 48 h
Procedure: as §1, §2

Liver cancer tumor cells = assay: MTT proliferation inhibition, liver cancer cells; format: cell-based, human; design: concentration or dose not given beside the values; conditions: 48 h
Procedure: as §1, §2

[7] = tested on: Thyroid cancer tumor cells; assay: MTT proliferation inhibition, thyroid cancer cells; format: cell-based, human; design: concentration or dose not given beside the values; conditions: 48 h
Procedure: as §1, §2

[8] = 20 mg/kg subcutaneous from day 30 of modeling
[9] = 50 μg intravitreal injection on day 13
[10] = 50 μg intravitreal for 1 week from day 7, vascular endothelial nuclei per slice
[11] = 10 mg/kg subcutaneous from day 30 of modeling
[12] = 25 μg intravitreal injection on day 13
[13] = 25 μg intravitreal for 1 week from day 7, vascular endothelial nuclei breaking through inner retinal membrane per slice
[14] = 80 mg/kg subcutaneous from day 30 of modeling
[15] = 40 mg/kg subcutaneous from day 30 of modeling

| Substance | Joint swelling [1, 8] | Left and right paw swelling [1, 8] | Clinical score [1, 8] | rate of growth inhibition (sarcoma tumor cells) | rate of growth inhibition [2] | rate of growth inhibition [3] | Neovascular clusters area [4, 9] | Inhibition rate ([4]; 50 μg intravitreal) | inhibition rate of retinal neovascular clusters [4] | rate of growth inhibition [5] | Cell nuclei count [6, 10] | rate of growth inhibition (Hemangioma tumor cells) | rate of growth inhibition (Liver cancer tumor cells) | rate of growth inhibition [7] | Joint swelling [1, 11] | Left and right paw swelling [1, 11] | Clinical score [1, 11] | Neovascular clusters area [4, 12] | Inhibition rate ([4]; 25 μg intravitreal) | Cell nuclei count [6, 13] | also measured |
| --- | --- | --- | --- | --- | --- | --- | --- | --- | --- | --- | --- | --- | --- | --- | --- | --- | --- | --- | --- | --- | --- |
| mPEG-bALD10k-Arg-Gly-Ala-Asp-Arg-Ala-Gly-Gly-Gly-Gly-Arg-Gly-Asp ({mPEG‑bALD 10 kDa}-RGADRAGGGGRGD) [mPEG-bALD10k-HM-1] | 0.74 ± 0.12 mm | 0.71 ± 0.12 mm | 8.69 ± 1.38 | 52.01 ± 12.32% | 75.23 ± 16.41% | 79.79 ± 20.45% | 0.083 ± 0.006 mm^2 | 62.35%** | 62.35% | 75.62 ± 18.03% | 7.627 ± 1.892 | 55.28 ± 12.30% | 68.59 ± 20.19% | 55.74 ± 13.13% |  |  |  |  |  |  | inhibition of proliferation of various tumor cells (in words) (various tumor cells): had the best effect; limbs score (in words) ([1]; CIA mice, subcutaneous, once every three days, vs model control group): significantly lower than that of the model control group |
| mPEG-bALD5k-Arg-Gly-Ala-Asp-Arg-Ala-Gly-Gly-Gly-Gly-Arg-Gly-Asp ({mPEG‑bALD 5 kDa}-RGADRAGGGGRGD) [mPEG-bALD5k-HM-1] |  |  |  | 41.42 ± 10.03% | 53.14 ± 10.34% | 65.46 ± 18.52% |  |  |  | 59.35 ± 12.64% |  | 40.29 ± 12.16% | 55.63 ± 10.27% | 42.19 ± 10.35% | 0.73 ± 0.15 mm | 0.74 ± 0.13 mm | 8.98 ± 1.25 | 0.108 ± 0.008 mm^2 | 51.17%** | 8.852 ± 2.933 |  |
| mPEG2-NHS10k-Arg-Gly-Ala-Asp-Arg-Ala-Gly-Gly-Gly-Gly-Arg-Gly-Asp ({mPEG2‑NHS 10 kDa}-RGADRAGGGGRGD) [mPEG2-NHS10k-HM-1] | 0.75 ± 0.15 mm | 0.74 ± 0.14 mm | 8.83 ± 1.32 | 43.59 ± 12.39% | 50.23 ± 14.26% | 60.49 ± 18.05% | 0.100 ± 0.006 mm^2 | 54.63%** | 54.63% | 55.78 ± 15.77% | 8.786 ± 3.072 | 48.81 ± 12.46% | 54.19 ± 12.80% | 40.47 ± 12.03% |  |  |  |  |  |  |  |
| mPEG-SC40k-Arg-Gly-Ala-Asp-Arg-Ala-Gly-Gly-Gly-Gly-Arg-Gly-Asp ({mPEG‑SC 40 kDa}-RGADRAGGGGRGD) [mPEG-SC40k-HM-1] |  |  |  | 45.26 ± 11.61% | 60.45 ± 17.25% | 70.27 ± 21.37% |  |  |  | 62.45 ± 19.22% |  | 53.36 ± 15.09% | 60.37 ± 14.74% | 50.13 ± 14.21% |  |  |  |  |  |  | Joint swelling [1, 14]: 0.80 ± 0.16 mm; Left and right paw swelling [1, 14]: 0.80 ± 0.16 mm; Clinical score [1, 14]: 9.09 ± 1.33; Neovascular clusters area ([4]; 200 μg intravitreal injection on day 13): 0.119 ± 0.005 mm^2; Inhibition rate ([4]; 200 μg intravitreal): 46.18%*; Cell nuclei count ([6]; 200 μg intravitreal for 1 week from day 7, vascular endothelial nuclei per slice): 8.089 ± 2.935 |
| mPEG-bALD20k-Arg-Gly-Ala-Asp-Arg-Ala-Gly-Gly-Gly-Gly-Arg-Gly-Asp ({mPEG‑bALD 20 kDa}-RGADRAGGGGRGD) [mPEG-bALD20k-HM-1] |  |  |  | 50.91 ± 10.64% | 69.54 ± 18.37% | 75.97 ± 22.67% |  |  |  | 70.73 ± 16.92% |  | 50.31 ± 14.00% | 62.49 ± 16.14% | 49.38 ± 13.20% |  |  |  |  |  |  | Joint swelling [1, 15]: 0.73 ± 0.15 mm; Left and right paw swelling [1, 15]: 0.75 ± 0.11 mm; Clinical score [1, 15]: 8.67 ± 1.32; Neovascular clusters area ([4]; 100 μg intravitreal injection on day 13): 0.097 ± 0.011 mm^2; Inhibition rate ([4]; 100 μg intravitreal): 56.22%**; Cell nuclei count ([6]; 100 μg intravitreal for 1 week from day 7, vascular endothelial nuclei per slice): 7.158 ± 1.724 |
| mPEG-ALD5k-Arg-Gly-Ala-Asp-Arg-Ala-Gly-Gly-Gly-Gly-Arg-Gly-Asp ({mPEG‑ALD 5 kDa}-RGADRAGGGGRGD) [mPEG-ALD5k-HM-1] |  |  |  | 38.41 ± 12.53% | 52.19 ± 12.64% | 65.99 ± 17.72% |  |  |  | 57.30 ± 15.82% |  | 43.89 ± 14.14% | 52.98 ± 11.55% | 40.23 ± 10.05% | 0.74 ± 0.14 mm | 0.72 ± 0.15 mm | 8.93 ± 1.27 | 0.108 ± 0.006 mm^2 | 50.98%** | 8.927 ± 2.902 |  |
